# Experimental data published in US7279444B2, “Substituted benzoylpyrazoles” (Bayer CropScience GmbH, priority 1999, dated 2007).
# Marks after values point to notes of the source that are not given here.
# Experiment: log P by HPLC on reversed-phase column (C 18), acidic range
# Format: physicochemical
# Protocol: Temperature: 43° C. […] The log P values given in Table 3 were determined in accordance with EEC Directive 79/831 Annex V.A8 by HPLC (High Performance Liquid Chromatography) on a reversed-phase column (C 18). Temperature: 43° C. […] The log P values given in Tables 4 were determined in accordance with EEC Directive 79/831 Annex V.A8 by HPLC (High Performance Liquid Chromatography) on a reversed-phase column (C 18). Temperature: 43° C.
SMILES,"chromatographic logP (reversed-phase HPLC column (C 18), pH=2)",logP
"CCn1ncc(C(=O)c2ccc(-n3nc(C(F)(F)F)n(C)c3=O)cc2Cl)c1O [Example 1, 4-methyl-5-trifluoromethyl-2-[3-chloro-4-(1-ethyl-5-hydroxy-pyrazol-4-yl-carbonyl)-phenyl]-2,4-dihydro-3H-1,2,4-triazol-3-one]",2.63,–
CCn1ncc(C(=O)c2ccc(S(C)(=O)=O)cc2Cn2nc(SC)n(C)c2=O)c1O [Example 4],–,logP = 1.24^a)
CCSc1nn(Cc2cc(C(F)(F)F)ccc2C(=O)c2cnn(CC)c2O)c(=O)n1C [Example 5],–,logP = 2.58^a)
CCn1ncc(C(=O)c2ccc(C(F)(F)F)cc2Cn2nc(SC(C)C)n(C)c2=O)c1O [Example 6],–,logP = 2.90^a)
CCn1ncc(C(=O)c2ccc(C(F)(F)F)cc2Cn2nc(OC)n(C3CC3)c2=O)c1O [Example 7],–,(IA)logP = 2.28^a)
CCn1ncc(C(=O)c2ccc(F)cc2Cn2nc(N(C)C)n(C)c2=O)c1O [Example 8],–,logP = 1.61^a)
Cc1nn(C)c(O)c1C(=O)c1ccc(F)cc1Cn1nc(N(C)C)n(C)c1=O [Example 9],–,logP = 1.32^a)
COc1nn(Cc2cc(F)ccc2C(=O)c2c(C)nn(C)c2O)c(=O)n1C1CC1 [Example 10],–,(IA)logP = 1.50^a)
CCOc1nn(Cc2cc(F)ccc2C(=O)c2c(C)nn(C)c2O)c(=O)n1C1CC1 [Example 11],–,(IA)logP = 1.80^a)
C=CCSc1nn(Cc2cc(Br)ccc2C(=O)c2cnn(CC)c2O)c(=O)n1C [Example 12],–,(IA)logP = 2.69^a)
CCn1ncc(C(=O)c2cc(-n3nc(C(F)(F)F)n(C)c3=O)ccc2C(F)(F)F)c1O [Example 13],–,logP = 2.83^a)
CCn1ncc(C(=O)c2ccccc2-n2nc(C(F)(F)F)n(C)c2=O)c1O [Example 15],–,logP = 1.95^a)
CCn1ncc(C(=O)c2ccc(Cl)cc2-n2nc(C(F)(F)F)n(C)c2=O)c1O [Example 16],–,logP = 2.47^a)
CCn1ncc(C(=O)c2ccc(Cl)c(Cn3nc(C(F)(F)F)n(C)c3=O)c2Cl)c1O [Example 17],–,logP = 2.30^a)
CCn1ncc(C(=O)c2ccc(Cl)c(Cn3nc(SC)n(C)c3=O)c2Cl)c1O [Example 18],–,logP = 1.91^a)
CCOc1nn(Cc2c(Cl)ccc(C(=O)c3cnn(CC)c3O)c2Cl)c(=O)n1C [Example 19],–,logP = 2.01^a)
CCn1ncc(C(=O)c2ccc(Cl)c(Cn3nc(C4CC4)n(C4CC4)c3=O)c2Cl)c1O [Example 20],–,(IB)logP = 2.14^a)
CCn1ncc(C(=O)c2ccc(Cl)c(Cn3nc(OC)n(C)c3=O)c2Cl)c1O [Example 21],–,logP = 1.69^a)
CCn1ncc(C(=O)c2ccc(Cl)c(Cn3nc(OC(C)C)n(C)c3=O)c2Cl)c1O [Example 22],–,logP = 2.31^a)
CCn1ncc(C(=O)c2ccc(Cl)c(Cn3nc(OCC(F)(F)F)n(C)c3=O)c2Cl)c1O [Example 23],–,logP = 2.33^a)
CCn1ncc(C(=O)c2ccc(Cl)c(Cn3nc(Br)n(C)c3=O)c2Cl)c1O [Example 24],–,logP = 1.81^a)
CCn1ncc(C(=O)c2ccc(Cl)c(Cn3ncn(C)c3=O)c2Cl)c1O [Example 25],–,logP = 1.28^a)
CCn1ncc(C(=O)c2ccc(Cl)c(Cn3nc(C4CC4)n(C)c3=O)c2Cl)c1O [Example 26],–,(IB)logP = 1.82^a)
CCn1ncc(C(=O)c2ccc(Br)cc2-n2nc(C(F)(F)F)n(C)c2=O)c1O [Example 27],–,logP = 2.55^a)
CCn1ncc(C(=O)c2ccc(Cl)c(Cn3nc(N(C)C)n(C)c3=O)c2Cl)c1O [Example 28],–,logP = 1.77^a)
CCn1ncc(C(=O)c2ccc(Cl)c(Cn3nc(C)n(C)c3=O)c2Cl)c1O [Example 29],–,logP = 1.38^a)
CCn1ncc(C(=O)c2ccc(Cl)c(Cn3nc4n(c3=O)CCCC4)c2Cl)c1O [Example 30],–,logP = 1.55^a)
CCn1ncc(C(=O)c2ccc(Cl)c(Cn3nc(OC)n(C4CC4)c3=O)c2Cl)c1O [Example 31],–,(IB)logP = 1.99^a)
CCOc1nn(Cc2c(Cl)ccc(C(=O)c3cnn(CC)c3O)c2Cl)c(=O)n1C1CC1 [Example 32],–,(IB)logP = 2.31^a)
